Here are results for 23 compounds from US20160289186A1, “FLUOROMETHYL-SUBSTITUTED PYRROLE CA[…]” (Grunenthal GmbH, priority 2013, published 2016).

T1 sequence (Q00975 whole entry): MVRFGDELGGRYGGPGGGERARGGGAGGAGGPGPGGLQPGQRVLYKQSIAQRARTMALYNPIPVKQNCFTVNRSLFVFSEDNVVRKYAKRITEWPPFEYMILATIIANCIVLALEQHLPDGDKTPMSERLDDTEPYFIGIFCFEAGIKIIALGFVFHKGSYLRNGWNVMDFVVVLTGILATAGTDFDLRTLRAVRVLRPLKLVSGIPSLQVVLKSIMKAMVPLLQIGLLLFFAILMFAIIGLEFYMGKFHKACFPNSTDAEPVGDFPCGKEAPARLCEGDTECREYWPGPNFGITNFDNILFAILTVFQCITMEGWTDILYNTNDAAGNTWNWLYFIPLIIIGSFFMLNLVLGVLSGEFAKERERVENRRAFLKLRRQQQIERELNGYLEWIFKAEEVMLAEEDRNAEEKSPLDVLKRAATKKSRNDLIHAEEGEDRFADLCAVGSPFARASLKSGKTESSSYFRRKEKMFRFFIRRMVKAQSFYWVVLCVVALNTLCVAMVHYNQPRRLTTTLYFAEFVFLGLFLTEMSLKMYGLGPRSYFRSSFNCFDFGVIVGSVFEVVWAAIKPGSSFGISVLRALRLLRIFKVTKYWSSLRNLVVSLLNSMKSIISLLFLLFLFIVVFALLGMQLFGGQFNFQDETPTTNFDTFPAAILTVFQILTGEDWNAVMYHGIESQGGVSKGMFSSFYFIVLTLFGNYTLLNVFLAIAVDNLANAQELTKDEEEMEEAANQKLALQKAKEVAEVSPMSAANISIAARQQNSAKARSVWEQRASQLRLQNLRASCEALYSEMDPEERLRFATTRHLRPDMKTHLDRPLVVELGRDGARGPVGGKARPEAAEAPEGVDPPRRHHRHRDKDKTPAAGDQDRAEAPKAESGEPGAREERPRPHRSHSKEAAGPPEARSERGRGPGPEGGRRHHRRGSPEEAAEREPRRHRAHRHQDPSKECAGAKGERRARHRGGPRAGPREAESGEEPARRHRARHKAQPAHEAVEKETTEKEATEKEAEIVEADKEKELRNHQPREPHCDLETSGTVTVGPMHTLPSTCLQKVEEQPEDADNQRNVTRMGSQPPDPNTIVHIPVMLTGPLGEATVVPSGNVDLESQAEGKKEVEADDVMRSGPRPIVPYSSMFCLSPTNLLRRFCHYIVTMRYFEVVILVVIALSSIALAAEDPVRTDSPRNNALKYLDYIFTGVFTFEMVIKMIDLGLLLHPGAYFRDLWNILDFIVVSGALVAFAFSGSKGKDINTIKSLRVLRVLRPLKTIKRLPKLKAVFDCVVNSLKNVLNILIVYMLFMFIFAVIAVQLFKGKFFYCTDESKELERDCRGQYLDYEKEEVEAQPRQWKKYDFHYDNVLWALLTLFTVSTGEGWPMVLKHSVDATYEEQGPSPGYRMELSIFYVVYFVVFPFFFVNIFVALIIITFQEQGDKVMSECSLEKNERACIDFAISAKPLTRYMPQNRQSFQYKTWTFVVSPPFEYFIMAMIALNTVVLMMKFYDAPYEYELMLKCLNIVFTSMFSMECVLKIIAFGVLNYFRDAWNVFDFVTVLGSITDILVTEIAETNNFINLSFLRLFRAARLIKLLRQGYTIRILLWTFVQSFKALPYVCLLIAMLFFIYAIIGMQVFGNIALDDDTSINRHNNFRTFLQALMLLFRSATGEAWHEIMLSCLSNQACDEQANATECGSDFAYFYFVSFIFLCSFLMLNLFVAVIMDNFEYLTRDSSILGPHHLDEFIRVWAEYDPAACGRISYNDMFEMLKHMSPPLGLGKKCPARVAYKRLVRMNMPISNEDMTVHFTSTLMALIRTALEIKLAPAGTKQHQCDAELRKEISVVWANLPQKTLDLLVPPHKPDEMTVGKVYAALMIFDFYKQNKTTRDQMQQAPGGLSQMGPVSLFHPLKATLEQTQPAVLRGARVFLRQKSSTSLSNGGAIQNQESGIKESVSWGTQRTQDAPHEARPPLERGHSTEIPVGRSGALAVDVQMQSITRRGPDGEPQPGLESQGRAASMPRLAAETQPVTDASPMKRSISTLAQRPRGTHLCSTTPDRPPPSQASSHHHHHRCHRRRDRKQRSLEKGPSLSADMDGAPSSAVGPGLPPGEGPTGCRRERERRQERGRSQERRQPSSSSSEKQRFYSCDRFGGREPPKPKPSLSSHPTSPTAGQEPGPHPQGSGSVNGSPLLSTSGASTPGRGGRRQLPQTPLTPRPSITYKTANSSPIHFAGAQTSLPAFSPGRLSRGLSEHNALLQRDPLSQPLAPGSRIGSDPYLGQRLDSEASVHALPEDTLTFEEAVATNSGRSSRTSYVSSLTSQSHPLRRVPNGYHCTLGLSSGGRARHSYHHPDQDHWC
T1 sequence (P54284 whole entry, further chain): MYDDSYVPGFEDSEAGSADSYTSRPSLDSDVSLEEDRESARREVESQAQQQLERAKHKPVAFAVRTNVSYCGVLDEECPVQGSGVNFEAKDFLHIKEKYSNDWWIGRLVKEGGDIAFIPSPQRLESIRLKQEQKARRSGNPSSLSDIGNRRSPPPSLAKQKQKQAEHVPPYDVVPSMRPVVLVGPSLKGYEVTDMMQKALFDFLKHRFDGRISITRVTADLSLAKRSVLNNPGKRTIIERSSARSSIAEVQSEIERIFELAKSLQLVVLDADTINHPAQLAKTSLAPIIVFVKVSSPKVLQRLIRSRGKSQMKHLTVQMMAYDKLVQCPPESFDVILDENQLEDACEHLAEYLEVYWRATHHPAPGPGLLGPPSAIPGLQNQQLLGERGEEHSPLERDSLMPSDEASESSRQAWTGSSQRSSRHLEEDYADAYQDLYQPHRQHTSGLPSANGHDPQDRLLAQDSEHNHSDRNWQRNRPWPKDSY
T1 sequence (P54289 25-1103, further chain): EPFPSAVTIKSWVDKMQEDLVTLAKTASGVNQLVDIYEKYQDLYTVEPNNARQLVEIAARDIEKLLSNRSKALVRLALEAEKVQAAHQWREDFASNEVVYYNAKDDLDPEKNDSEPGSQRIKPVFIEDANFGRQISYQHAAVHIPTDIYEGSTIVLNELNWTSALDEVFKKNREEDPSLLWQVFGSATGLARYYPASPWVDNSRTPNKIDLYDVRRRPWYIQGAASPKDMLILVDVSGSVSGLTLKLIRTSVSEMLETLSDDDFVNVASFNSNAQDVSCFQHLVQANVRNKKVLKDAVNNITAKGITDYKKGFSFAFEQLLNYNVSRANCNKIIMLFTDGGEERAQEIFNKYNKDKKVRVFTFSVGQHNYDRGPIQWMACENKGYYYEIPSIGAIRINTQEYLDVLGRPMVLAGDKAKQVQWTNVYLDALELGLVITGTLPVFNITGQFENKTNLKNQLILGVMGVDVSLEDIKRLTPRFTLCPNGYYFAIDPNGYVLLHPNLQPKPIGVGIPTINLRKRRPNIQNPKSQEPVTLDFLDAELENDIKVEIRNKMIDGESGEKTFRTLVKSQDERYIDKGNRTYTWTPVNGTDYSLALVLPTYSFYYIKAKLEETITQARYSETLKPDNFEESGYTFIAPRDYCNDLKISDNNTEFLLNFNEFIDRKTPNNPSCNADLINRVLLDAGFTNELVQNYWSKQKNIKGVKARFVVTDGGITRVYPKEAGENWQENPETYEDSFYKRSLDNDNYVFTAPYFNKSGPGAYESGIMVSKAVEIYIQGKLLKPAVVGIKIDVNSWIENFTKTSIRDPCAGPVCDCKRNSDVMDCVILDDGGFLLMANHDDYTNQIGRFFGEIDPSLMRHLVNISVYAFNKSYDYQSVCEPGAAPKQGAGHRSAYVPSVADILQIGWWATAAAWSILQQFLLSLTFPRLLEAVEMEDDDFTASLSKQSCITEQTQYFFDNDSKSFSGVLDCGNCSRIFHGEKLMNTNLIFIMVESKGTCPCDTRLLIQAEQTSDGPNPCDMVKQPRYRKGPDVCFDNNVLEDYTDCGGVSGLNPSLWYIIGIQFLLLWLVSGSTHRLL

This test addresses T1, Human CaV2.2 channels (Homo sapiens, UniProt Q00975).
T1 construct: expressed in transfected cells; host or cells: HEK293
In words: Fluorescent (FLIPR) assay for CaV2.2 channels using potassium depolarization to induce channel opening. Format: cell-based. To be noted: 3 μM compound; 30 mM KCl assay buffer (inactivated channel state); HEK293 cells stably expressing human CaV2.2; read-out: Activity Category: %-Inhib (CaV2.2) @3 μM @30 mM KCl. The text has this: In the process, the Ca^2+ influx is quantified in the FLIPR assay with the aid of a Ca^2+-sensitive dye (type Fluo-4, Molecular Probes Europe BV, Leiden, the Netherlands) in a fluorescent imaging plate reader (FLIPR 3, Molecular Devices, Sunnyvale, USA), as described hereinafter.
Human CaV2.2 channels were stably expressed in HEK293 cells together with alpha2-delta and beta subunits of voltage gated calcium channels. In addition, an inwardly rectifying potassium channel (Kir2.3) was stably expressed in these cells to augment control of the cell membrane potential by the concentration of extracellular potassium ions. Raise of the extracellular potassium concentration leads to depolarization of the membrane potential and thus regulates the voltage dependent state of CaV2.2 channels. For preparation, cells were seeded in black poly-D-lysine coated 96-well plates (Becton Dickinson, Biocoat 4640) in 100 μL medium [500 mL DMEM/F-12 plus Glutamax (Invitrogen 31331-093) plus 5.5 mL MEM NEAA 100× (Invitrogen 11140-035) plus 50 mL FBS decomplemented (Invitrogen 10270-106) plus 200 μg/mL Geneticin (Invitrogen 10131-027) plus 50 μg/mL Hygromycin B (Invitrogen 10687-010) plus 2 μg/mL Blasticidin (anti-bl5b Invivo-Gen) plus 0.2 μg/mL Puromycin (A 11138-03)] at a cell density of 30.000 cells per well. Plates were incubated at 37° C. (5% CO2) for 20 to 23 h. On the day of experiment medium was discarded and cells were loaded with Fluo 4 by addition of 100 μL of basic assay buffer (10 mM HEPES, 1 mM KCl, 149 mM NaCl, 0.8 mM CaCl2, 1.7 mM MgCl2, 10 mM Glucose, 0.1% BSA. pH 7.4) containing 2 μM Fluo 4 (Molecular Probes; F-14201), 0.01% pluronic acid (Molecular Probes; P-6866) and 2.5 mM probenecid (Molecular Probes; P36400). Cells were incubated in the dark at 25° C. for 60 min. Then dye containing buffer was discarded and 100 μL basic (1 mM KCl) or alternative (30 mM KCl) assay buffer was added. The alternative assay buffer contained altered concentrations of KCl (30 mM) and NaCl (120 mM) and was used in order to promote the inactivated channel state. After that 25 μL of basic or alternative assay buffer with or without test compound were added and cells were incubated again in the dark at 25° C. for 15 min. Fluorescence intensity was measured on a FLIPR 3 instrument (Molecular Devices Corp., Sunnyvale, Calif.) with excitation at 480 nm and emission at 535 nm. After continuously reading fluorescence for 30 sec, 50 μL of basic assay buffer containing 210 mM KCl (NaCl omitted) were added for depolarization. Peak fluorescent signal intensity was determined and the amplitude of the peak signal, normalized to base line, was used to measure channel inhibition by test compounds.
On to `Cc1c(-c2ccc(Cl)cc2)c(C(=O)N(Cc2ccccc2)C2CCOCC2)n(C)c1C(F)(F)F` [Example 001, N-Benzyl-3-(4-chlorophenyl)-1,4-dimethyl-N-tetrahydro-pyran-4-yl-5-(trifluoromethyl)-1H-pyrrole-2-carboxylic acid amide], for which the inhibition at 3 µM was 75 to 95%.

Take `Cc1c(-c2ccc(Cl)cc2)c(C(=O)N(C)CC(C)(C)C)n(C)c1C(F)(F)F` [Example 002, 3-(4-Chlorophenyl)-N-(2,2-dimethyl-propyl)-N,1,4-trimethyl-5-(trifluoromethyl)-1H-pyrrole-2-carboxylic acid amide]: the inhibition at 3 µM lay within 75 to 95%.

As to `Cc1c(-c2ccc(Cl)cc2)c(C(=O)N(Cc2ccccc2)CC(C)(C)C)n(C)c1C(F)(F)F` [Example 003, N-Benzyl-3-(4-chlorophenyl)-N-(2,2-dimethyl-propyl)-1,4-dimethyl-5-(trifluoromethyl)-1H-pyrrole-2-carboxylic acid amide], the inhibition at 3 µM was in the range of 40 to 75%.

As for `Cc1c(-c2ccc(Cl)cc2)c(C(=O)N2CCOCC2)n(C)c1C(F)(F)F` [Example 004, [3-(4-Chlorophenyl)-1,4-dimethyl-5-(trifluoromethyl)-1H-pyrrol-2-yl]-morpholin-4-yl-methanone], the inhibition at 3 µM is 75 to 95%.

On to `CCn1c(C(=O)N(C)CC(C)(C)C)c(-c2ccc(Cl)cc2)c(C)c1C(F)(F)F` [Example 005, 3-(4-Chlorophenyl)-N-(2,2-dimethyl-propyl)-1-ethyl-N,4-dimethyl-5-(trifluoromethyl)-1H-pyrrole-2-carboxylic acid amide], for which the inhibition at 3 µM was 40 to 75%.

Take `Cc1c(-c2ccc(Cl)cc2)c(C(=O)N2CCOC(C)(C)C2)n(C(C)C)c1C(F)(F)F` [Example 006, [3-(4-Chlorophenyl)-1-isopropyl-4-methyl-5-(trifluoromethyl)-1H-pyrrol-2-yl]-(2,2-dimethyl-morpholin-4-yl)-methanone]: the inhibition at 3 µM is 75 to 95%.

Turning to `Cc1c(-c2ccc(Cl)cc2)c(C(=O)N(C)C2(C(N)=O)CC2)n(C2CC2)c1C(F)(F)F` [Example 007, N-(1-Carbamoyl-cyclopropyl)-3-(4-chlorophenyl)-1-cyclopropyl-N,4-dimethyl-5-(trifluoromethyl)-1H-pyrrole-2-carboxylic acid amide], the inhibition at 3 µM lay in the range of 40 to 75%.

Regarding `Cc1c(-c2ccc(Cl)cc2)c(C(=O)N(C)C2CCS(=O)(=O)CC2)n(C2CC2)c1C(F)(F)F` [Example 008, 3-(4-Chlorophenyl)-1-cyclopropyl-N-(1,1-dioxo-thian-4-yl)-N,4-dimethyl-5-(trifluoromethyl)-1H-pyrrole-2-carboxylic acid amide], the inhibition at 3 µM is 75 to 95%.

For the compound `Cc1c(-c2ccc(Cl)cc2)c(C(=O)N(C)CC(C)(C)C(N)=O)n(C2CC2)c1C(F)(F)F` [Example 009, N-(2-Carbamoyl-2-methyl-propyl)-3-(4-chlorophenyl)-1-cyclopropyl-N,4-dimethyl-5-(trifluoromethyl)-1H-pyrrole-2-carboxylic acid amide], the inhibition at 3 µM lay within 75 to 95%.

In the case of `COc1ccc(CN(C)C(=O)c2c(-c3ccc(Cl)cc3)c(C)c(C(F)(F)F)n2C2CC2)cc1` [Example 010, 3-(4-Chlorophenyl)-1-cyclopropyl-N-[(4-methoxyphenyl)-methyl]-N,4-dimethyl-5-(trifluoromethyl)-1H-pyrrole-2-carboxylic acid amide], the inhibition at 3 µM lay in the range of 75 to 95%.

As to `COc1ccc(CN(C)C(=O)c2c(-c3ccc(Cl)cc3)cc(C(F)(F)F)n2C2CC2)cc1` [Example 011, 3-(4-Chlorophenyl)-1-cyclopropyl-N-[(4-methoxyphenyl)-methyl]-N-methyl-5-(trifluoromethyl)-1H-pyrrole-2-carboxylic acid amide], the inhibition at 3 µM fell in the range of 75 to 95%.

On to `Cc1c(-c2ccc(Cl)cc2)c(C(=O)N(C)C2CC2)n(C2CC2)c1C(F)(F)F` [Example 012, 3-(4-Chlorophenyl)-N,1-dicyclopropyl-N,4-dimethyl-5-(trifluoromethyl)-1H-pyrrole-2-carboxylic acid amide], for which the inhibition at 3 µM was 75 to 95%.

Regarding `CN(C(=O)c1c(-c2ccc(Cl)cc2)cc(C(F)(F)F)n1C1CC1)C1CC1` [Example 013, 3-(4-Chlorophenyl)-N,1-dicyclopropyl-N-methyl-5-(trifluoromethyl)-1H-pyrrole-2-carboxylic acid amide], the inhibition at 3 µM lay in the range of 75 to 95%.

`Cc1c(-c2ccc(Cl)cc2)c(C(=O)N(C)C2CCOCC2)n(C2CC2)c1C(F)(F)F` [Example 014, 3-(4-Chlorophenyl)-1-cyclopropyl-N,4-dimethyl-N-tetrahydro-pyran-4-yl-5-(trifluoromethyl)-1H-pyrrole-2-carboxylic acid amide]: the inhibition at 3 µM was in the range of 75 to 95%.

As for `CN(C(=O)c1c(-c2ccc(Cl)cc2)cc(C(F)(F)F)n1C1CC1)C1CCOCC1` [Example 015, 3-(4-Chlorophenyl)-1-cyclopropyl-N-methyl-N-tetrahydro-pyran-4-yl-5-(trifluoromethyl)-1H-pyrrole-2-carboxylic acid amide], the inhibition at 3 µM fell in the range of 75 to 95%.

Regarding `Cc1c(-c2ccc(Cl)cc2)c(C(=O)N(C)CC(C)(C)CN2CCOCC2)n(C2CC2)c1C(F)(F)F` [Example 016, 3-(4-Chlorophenyl)-1-cyclopropyl-N-(2,2-dimethyl-3-morpholin-4-yl-propyl)-N,4-dimethyl-5-(trifluoromethyl)-1H-pyrrole-2-carboxylic acid amide], the inhibition at 3 µM is > 95%.

As to `CN(CC(C)(C)CN1CCOCC1)C(=O)c1c(-c2ccc(Cl)cc2)cc(C(F)(F)F)n1C1CC1` [Example 017, 3-(4-Chlorophenyl)-1-cyclopropyl-N-(2,2-dimethyl-3-morpholin-4-yl-propyl)-N-methyl-5-(trifluoromethyl)-1H-pyrrole-2-carboxylic acid amide], the inhibition at 3 µM was in the range of 75 to 95%.

For the compound `Cc1c(-c2ccc(Cl)cc2)c(C(=O)N(C)CC(C)(C)O)n(C2CC2)c1C(F)(F)F` [Example 018, 3-(4-Chlorophenyl)-1-cyclopropyl-N-(2-hydroxy-2-methyl-propyl)-N,4-dimethyl-5-(trifluoromethyl)-1H-pyrrole-2-carboxylic acid amide], the inhibition at 3 µM lay in the range of 75 to 95%.

For `CN(CC(C)(C)O)C(=O)c1c(-c2ccc(Cl)cc2)cc(C(F)(F)F)n1C1CC1` [Example 019, 3-(4-Chlorophenyl)-1-cyclopropyl-N-(2-hydroxy-2-methyl-propyl)-N-methyl-5-(trifluoromethyl)-1H-pyrrole-2-carboxylic acid amide], the inhibition at 3 µM is 40 to 75%.

Consider `Cc1cc(CN(C)C(=O)c2c(-c3ccc(Cl)cc3F)c(C)c(C(F)(F)F)n2C2CC2)no1` [Example 020, 3-(4-Chloro-2-fluoro-phenyl)-1-cyclopropyl-N,4-dimethyl-N-[(5-methyl-isoxazol-3-yl)-methyl]-5-(trifluoromethyl)-1H-pyrrole-2-carboxylic acid amide], for which the inhibition at 3 µM is > 95%.

Turning to `Cc1c(-c2ccc(Cl)cc2F)c(C(=O)N(C)Cc2ccncn2)n(C2CC2)c1C(F)(F)F` [Example 021, 3-(4-Chloro-2-fluoro-phenyl)-1-cyclopropyl-N,4-dimethyl-N-(pyrimidin-4-yl-methyl)-5-(trifluoromethyl)-1H-pyrrole-2-carboxylic acid amide], the inhibition at 3 µM is > 95%.

Turning to `Cc1c(-c2ccc(Cl)cc2)c(C(=O)N(C)CC2CCOC2)n(C2CC2)c1C(F)(F)F` (centres unmarked) [Example 022, 3-(4-Chlorophenyl)-1-cyclopropyl-N,4-dimethyl-N-(tetrahydro-furan-3-yl-methyl)-5-(trifluoromethyl)-1H-pyrrole-2-carboxylic acid amide], the inhibition at 3 µM was > 95%.

As to `CN(CC1CCOC1)C(=O)c1c(-c2ccc(Cl)cc2)cc(C(F)(F)F)n1C1CC1` (centres unmarked) [Example 023, 3-(4-Chlorophenyl)-1-cyclopropyl-N-methyl-N-(tetrahydro-furan-3-yl-methyl)-5-(trifluoromethyl)-1H-pyrrole-2-carboxylic acid amide], the inhibition at 3 µM is 75 to 95%.
